# Laboratory results as given in US12522594B2, “2-heteroaryl-3-oxo-2,3-dihydropyridazine-4-carboxamides for the treatment of cancer” (Deutsches Krebsforschungszentrum, priority 2017, dated 2026).
# “And” between values parts separate entries of the source, which are not always exact repeats. Identical values can stand only once.
# Experiments:
# human monocytes = test: In vitro assay 4: rescue of TNFα production from human primary monocytes (LPS + KA); format: cell-based; conditions: one value per donor
# Description: In Vitro Assay 4: Rescue of TNFα Production from Human Primary Monocytes
# The ability of the substances to enhance immune cell activity was determined. The substances were tested for their capacity to reverse KA-induced inhibition of TNFα production by LPS-stimulated human monocytes. Human monocytes were purified by negative selection from donor PBMCs using Miltenyi beads and seeded at 2×10^5 cells/well in complete growth medium (RPMI 1640, 10% FCS). Monocytes were incubated with 10 ng/mL LPS (O127:B8, #L4516, Sigma) and 200 uM KA (#3375, Sigma) and substances were added at concentrations of 1 uM, 0.3 uM and 0.1 uM and cultured for 18 hours. LPS alone served as the positive control. TNFα production in the supernatant was measured by Meso Scale Discovery immunoassay and the ability of the substances to rescue TNFα production was calculated as a percentage of LPS stimulation and KA-induced inhibition and normalized to the donor-specific response with the reference AHR antagonist compound GNF-351 (Smith et al., J Pharmacol Exp Ther, 2011, 338(1):318-27).
# B16F10-OVA cells [1] = test: In vivo assay: efficacy of an example compound and a PD-1/-L1 axis antagonist, B16F10-OVA tumor in C57/BL6N mice; parameters: species or system mouse; conditions: tumor volume treatment/control; single agent plus vehicle or isotype; AhR antagonist 30 mg/kg QD p.o.; aPDL1 (TPP-3911) 10 mg/kg q3d i.p.
# Description: In Vivo Assay: Efficacy of Compositions Comprising an Example Compound and a PD-1/-L1 Axis Antagonist
# Animals are ordered from Charles River Sulzfeld, Germany and assigned to the study at the age of 7 weeks. Animal husbandry, feeding and health conditions are according to animal welfare guidelines. B16F10-OVA cells are B16F10 mouse melanoma cells that were virally transduced to express ovalbumin. […] The antibiotic blasticidin is removed 1 passage before inoculation. Female C57/BL6N mice were inoculated with 100000 B16F100VA tumor cells in 50% medium/50% matrigel subcutaneously in the flank. After 5 days the animals were randomized and therapeutic treatment started.
# The anti-PDL1 antibody is a chimera of the variable domain of atezolizumab with murine IgG1 CH1, 2 and 3 domains.
# B16F10-OVA cells [2] = test: In vivo assay: efficacy of an example compound and a CTLA4 axis antagonist, B16F10-OVA tumor in C57/BL6J mice; parameters: species or system mouse; conditions: tumor volume treatment/control; single agent plus vehicle or isotype; AhR antagonist 30 mg/kg QD p.o.; aCTLA4 1 mg/kg q3d i.p.
# Description: In Vivo Assay: Efficacy of Compositions Comprising an Example Compound and a CTLA4 Axis Antagonist
# Animals are ordered from Charles River Sulzfeld, Germany and assigned to the study at the age of 8 weeks. Animal husbandry, feeding and health conditions are according to animal welfare guidelines. B16F10-OVA cells are B16F10 mouse melanoma cells that were virally transduced to express ovalbumin. B16F10-OVA cells were cultivated with RPMI 1640 with 10% FCS+2.5 μg/ml blasticidin and splitted at least 3 times before inoculation. The antibiotic blasticidin is removed 1 passage before inoculation. Female C57/BL6J mice were inoculated with 10000 B16F10-OVA tumor cells in 50% medium/50% matrigel subcutaneously in the flank. After 7 days the animals were randomized and therapeutic treatment started on day 8. The AhR antagonists were dissolved in Ethanol/Solutol/Water (10/40/50) and given at 30 mg/kg, QD, p.o. The anti-CTLA4 antibody was dosed at 1 mg/kg, q3d, i.p. The anti-CTLA4 antibody is mouse-specific with syrian hamster IgG1 isotype (Clone: 9H10 (anti mouse CTLA4), Fa. BioXCell BE0131). […]
# Tumor size was measured using calipers determining length (a) and width (b). Tumor volume was calculated according to: […]
# Based on tumor volume efficacy was calculated dividing tumor volume of the respective treatment group by tumor volume of the control group (T/C).
compound,measurement,setting,value
"C[C@@H](CO)NC(=O)c1cc(-c2ccc(Cl)cc2)nn(-c2cnn(C)c2)c1=O [Example 17, 6-(4-Chlorophenyl)-N-[(2S)-1-hydroxypropan-2-yl]-2-(1-methyl-1H-pyrazol-4-yl)-3-oxo-2,3-dihydropyridazine-4-carboxamide]",Individual Donors Conc of highest rescue,"human monocytes; concentration (of 1, 0.3, 0.1 uM tested) at which highest TNFα rescue was observed",1 µM
same,Individual Donors % rescue TNFα normalised to ref cmpd,"human monocytes; human monocytes, 10 ng/mL LPS + 200 uM KA, 18 hours, highest percent rescue relative to highest rescue with GNF-351",438% and 296%
same,T/C,B16F10-OVA cells [1],0.92
same,T/C,B16F10-OVA cells [2],0.90
